Where two headings read alike, the source gives them in different places.
What was measured:
Assay in all cases: Kinase binding screen
Settings in all cases: read-out: Percent Control at 100 nM Compound Concentration
[1] = biological target: MAK (Homo sapiens (Human), UniProt P20794)
[2] = biological target: NEK4 (Homo sapiens (Human), UniProt P51957)
[3] = biological target: CAMK2D (Homo sapiens (Human), UniProt Q13557)
[4] = biological target: FGR (Homo sapiens (Human), UniProt P09769)
[5] = biological target: BIKE (Homo sapiens (Human), UniProt Q9NSY1)
BIKE, sequence (Q9NSY1 whole entry): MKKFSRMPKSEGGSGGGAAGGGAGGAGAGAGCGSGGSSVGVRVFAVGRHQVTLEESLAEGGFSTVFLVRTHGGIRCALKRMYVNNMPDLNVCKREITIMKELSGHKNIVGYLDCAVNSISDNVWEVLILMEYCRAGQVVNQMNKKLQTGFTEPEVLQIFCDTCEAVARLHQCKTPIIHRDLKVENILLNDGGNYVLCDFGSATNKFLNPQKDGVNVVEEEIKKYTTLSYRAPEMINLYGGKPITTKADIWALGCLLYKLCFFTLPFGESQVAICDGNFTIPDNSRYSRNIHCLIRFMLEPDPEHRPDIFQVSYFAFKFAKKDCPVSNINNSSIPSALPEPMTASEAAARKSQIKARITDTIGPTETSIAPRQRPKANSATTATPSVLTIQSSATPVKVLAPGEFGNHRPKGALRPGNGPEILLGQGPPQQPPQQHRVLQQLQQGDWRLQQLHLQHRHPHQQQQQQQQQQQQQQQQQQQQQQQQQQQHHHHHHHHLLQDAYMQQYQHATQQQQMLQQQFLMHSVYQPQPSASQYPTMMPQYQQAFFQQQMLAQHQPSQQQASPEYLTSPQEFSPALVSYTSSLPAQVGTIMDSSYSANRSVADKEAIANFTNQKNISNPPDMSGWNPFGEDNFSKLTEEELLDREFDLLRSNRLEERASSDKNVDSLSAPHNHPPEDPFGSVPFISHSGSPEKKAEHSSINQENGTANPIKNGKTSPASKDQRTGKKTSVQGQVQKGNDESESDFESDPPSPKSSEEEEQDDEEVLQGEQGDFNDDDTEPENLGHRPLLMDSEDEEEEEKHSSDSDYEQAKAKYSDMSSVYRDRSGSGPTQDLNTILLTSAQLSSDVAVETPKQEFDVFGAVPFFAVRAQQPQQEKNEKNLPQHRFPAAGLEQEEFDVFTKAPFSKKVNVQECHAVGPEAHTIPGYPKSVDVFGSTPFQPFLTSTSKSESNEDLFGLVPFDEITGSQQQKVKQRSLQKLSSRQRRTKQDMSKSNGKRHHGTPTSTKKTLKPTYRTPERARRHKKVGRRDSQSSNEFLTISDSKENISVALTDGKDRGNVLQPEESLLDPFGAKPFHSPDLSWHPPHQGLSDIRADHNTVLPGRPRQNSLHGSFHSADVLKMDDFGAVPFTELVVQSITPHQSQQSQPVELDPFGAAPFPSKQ

[6] = biological target: NEK9 (Homo sapiens (Human), UniProt Q8TD19)
[7] = biological target: AMPK-alpha2 (Homo sapiens (Human), UniProt P54646)
[8] = biological target: JNK2 (Homo sapiens (Human), UniProt P45984)
[9] = biological target: CSNK1G3 (Homo sapiens (Human), UniProt Q9Y6M4)
CSNK1G3, sequence (Q9Y6M4 whole entry): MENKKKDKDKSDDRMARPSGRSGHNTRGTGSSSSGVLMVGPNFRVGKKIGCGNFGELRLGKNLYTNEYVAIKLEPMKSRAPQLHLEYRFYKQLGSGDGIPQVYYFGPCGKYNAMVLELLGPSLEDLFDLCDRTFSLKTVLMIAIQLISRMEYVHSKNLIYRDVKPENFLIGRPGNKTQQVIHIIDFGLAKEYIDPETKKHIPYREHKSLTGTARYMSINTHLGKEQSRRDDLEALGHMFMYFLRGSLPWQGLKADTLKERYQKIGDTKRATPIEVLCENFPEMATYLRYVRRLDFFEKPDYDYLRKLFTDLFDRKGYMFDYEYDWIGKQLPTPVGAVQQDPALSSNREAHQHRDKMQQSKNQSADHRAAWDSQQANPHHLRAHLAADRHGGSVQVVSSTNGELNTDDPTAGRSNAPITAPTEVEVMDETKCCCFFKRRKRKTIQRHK

[10] = biological target: PDGFRA (Homo sapiens (Human), UniProt P16234)
[11] = biological target: PRKD2 (Homo sapiens (Human), UniProt Q9BZL6)
[12] = biological target: JNK1 (Homo sapiens (Human), UniProt P45983)
[13] = biological target: SRPK2 (Homo sapiens (Human), UniProt P78362)
[14] = biological target: PAK1 (Homo sapiens (Human), UniProt Q13153)
[15] = biological target: RAF1 (Homo sapiens (Human), UniProt P04049)
[16] = biological target: EGFR(L858R) (Homo sapiens (Human), UniProt P00533, L858R)
[17] = biological target: AXL (Homo sapiens (Human), UniProt P30530)
AXL, sequence (P30530 26-894): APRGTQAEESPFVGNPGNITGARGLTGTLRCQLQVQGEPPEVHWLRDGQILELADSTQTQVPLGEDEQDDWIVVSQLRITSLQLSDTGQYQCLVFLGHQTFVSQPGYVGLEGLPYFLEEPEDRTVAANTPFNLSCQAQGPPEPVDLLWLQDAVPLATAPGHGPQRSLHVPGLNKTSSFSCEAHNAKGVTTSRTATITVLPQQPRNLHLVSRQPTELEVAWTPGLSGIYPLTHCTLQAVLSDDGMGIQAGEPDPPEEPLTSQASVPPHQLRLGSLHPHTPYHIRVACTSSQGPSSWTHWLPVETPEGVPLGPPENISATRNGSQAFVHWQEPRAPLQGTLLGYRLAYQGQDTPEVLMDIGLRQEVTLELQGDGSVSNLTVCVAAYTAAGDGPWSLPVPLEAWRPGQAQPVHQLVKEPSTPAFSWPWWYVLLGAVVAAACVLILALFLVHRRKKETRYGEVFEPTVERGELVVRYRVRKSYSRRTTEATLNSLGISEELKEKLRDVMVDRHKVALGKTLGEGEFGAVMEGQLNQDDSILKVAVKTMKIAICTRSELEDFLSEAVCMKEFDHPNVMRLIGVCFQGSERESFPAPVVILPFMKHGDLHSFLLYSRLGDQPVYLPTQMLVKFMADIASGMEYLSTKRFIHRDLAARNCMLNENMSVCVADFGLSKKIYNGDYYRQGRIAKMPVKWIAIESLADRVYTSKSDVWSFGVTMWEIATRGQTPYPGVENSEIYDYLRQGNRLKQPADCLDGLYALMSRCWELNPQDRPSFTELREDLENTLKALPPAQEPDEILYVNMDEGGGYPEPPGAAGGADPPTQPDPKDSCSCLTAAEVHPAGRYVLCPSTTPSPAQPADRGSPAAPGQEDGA

[18] = biological target: VEGFR2 (Homo sapiens (Human), UniProt P35968)
[19] = biological target: GAK (Homo sapiens (Human), UniProt O14976)
[20] = biological target: CSK (Homo sapiens (Human), UniProt P41240)
CSK, sequence (P41240 whole entry): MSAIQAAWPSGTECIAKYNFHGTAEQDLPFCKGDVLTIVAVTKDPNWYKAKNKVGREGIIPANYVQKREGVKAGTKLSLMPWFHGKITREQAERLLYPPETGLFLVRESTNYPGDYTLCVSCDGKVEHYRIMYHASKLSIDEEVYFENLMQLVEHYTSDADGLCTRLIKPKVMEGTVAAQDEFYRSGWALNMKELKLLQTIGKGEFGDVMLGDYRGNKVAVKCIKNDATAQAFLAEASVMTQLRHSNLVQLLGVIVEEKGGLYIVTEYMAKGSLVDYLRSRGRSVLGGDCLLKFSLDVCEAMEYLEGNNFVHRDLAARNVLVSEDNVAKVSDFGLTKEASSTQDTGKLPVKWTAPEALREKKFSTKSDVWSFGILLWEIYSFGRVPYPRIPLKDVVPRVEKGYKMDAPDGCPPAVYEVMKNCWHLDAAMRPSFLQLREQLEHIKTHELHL

[21] = biological target: HPK1 (Homo sapiens (Human), UniProt Q92918)
[22] = biological target: FLT3(D835Y) (Homo sapiens (Human), UniProt P36888, D835Y)
[23] = biological target: ALK(C1156Y) (Homo sapiens (Human), UniProt Q9UM73, C1156Y)
[24] = biological target: EPHA2 (Homo sapiens (Human), UniProt P29317)
[25] = biological target: PAK2 (Homo sapiens (Human), UniProt Q13177)
PAK2, sequence (Q13177 whole entry): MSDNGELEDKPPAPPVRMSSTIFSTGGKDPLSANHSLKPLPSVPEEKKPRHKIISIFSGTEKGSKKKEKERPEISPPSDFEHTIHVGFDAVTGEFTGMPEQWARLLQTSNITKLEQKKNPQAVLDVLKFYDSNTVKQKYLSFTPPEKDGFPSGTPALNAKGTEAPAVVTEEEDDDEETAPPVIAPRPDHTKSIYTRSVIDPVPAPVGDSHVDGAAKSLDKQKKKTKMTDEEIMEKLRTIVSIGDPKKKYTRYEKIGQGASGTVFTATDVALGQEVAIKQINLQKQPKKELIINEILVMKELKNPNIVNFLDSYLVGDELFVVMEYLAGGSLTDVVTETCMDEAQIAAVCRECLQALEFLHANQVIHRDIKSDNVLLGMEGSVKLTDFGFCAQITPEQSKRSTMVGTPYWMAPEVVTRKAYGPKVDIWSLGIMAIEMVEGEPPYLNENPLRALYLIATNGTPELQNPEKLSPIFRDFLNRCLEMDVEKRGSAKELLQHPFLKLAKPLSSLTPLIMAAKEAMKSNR

[26] = biological target: SIK2 (Homo sapiens (Human), UniProt Q9H0K1)
SIK2, sequence (Q9H0K1 whole entry): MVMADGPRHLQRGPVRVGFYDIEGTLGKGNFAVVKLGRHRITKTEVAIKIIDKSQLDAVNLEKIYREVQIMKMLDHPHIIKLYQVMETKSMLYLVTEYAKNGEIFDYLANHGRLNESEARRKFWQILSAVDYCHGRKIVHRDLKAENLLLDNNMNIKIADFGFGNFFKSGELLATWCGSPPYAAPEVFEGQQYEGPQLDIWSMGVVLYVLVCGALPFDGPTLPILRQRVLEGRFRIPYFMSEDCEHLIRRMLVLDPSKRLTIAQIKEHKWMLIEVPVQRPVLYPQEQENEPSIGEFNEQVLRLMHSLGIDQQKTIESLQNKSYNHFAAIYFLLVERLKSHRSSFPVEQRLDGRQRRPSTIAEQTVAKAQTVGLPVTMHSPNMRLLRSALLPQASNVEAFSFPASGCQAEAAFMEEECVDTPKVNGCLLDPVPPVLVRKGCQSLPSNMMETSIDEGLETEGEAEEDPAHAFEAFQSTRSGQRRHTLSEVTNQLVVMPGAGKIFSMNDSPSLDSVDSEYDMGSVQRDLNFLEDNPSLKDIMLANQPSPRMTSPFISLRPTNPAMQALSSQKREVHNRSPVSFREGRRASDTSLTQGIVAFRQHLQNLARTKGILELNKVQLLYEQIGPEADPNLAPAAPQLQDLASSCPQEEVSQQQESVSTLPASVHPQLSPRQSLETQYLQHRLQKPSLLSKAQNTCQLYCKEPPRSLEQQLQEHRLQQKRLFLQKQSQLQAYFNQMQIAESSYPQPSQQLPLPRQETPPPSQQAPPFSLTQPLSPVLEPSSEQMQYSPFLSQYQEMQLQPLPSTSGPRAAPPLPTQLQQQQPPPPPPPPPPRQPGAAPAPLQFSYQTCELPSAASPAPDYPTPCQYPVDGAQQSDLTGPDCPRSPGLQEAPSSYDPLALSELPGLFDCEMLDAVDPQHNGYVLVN

[27] = biological target: CHEK2 (Homo sapiens (Human), UniProt O96017)
[28] = biological target: TAOK3 (Homo sapiens (Human), UniProt Q9H2K8)
[29] = biological target: LIMK2 (Homo sapiens (Human), UniProt P53671)

CAMK2D, sequence (Q13557 whole entry): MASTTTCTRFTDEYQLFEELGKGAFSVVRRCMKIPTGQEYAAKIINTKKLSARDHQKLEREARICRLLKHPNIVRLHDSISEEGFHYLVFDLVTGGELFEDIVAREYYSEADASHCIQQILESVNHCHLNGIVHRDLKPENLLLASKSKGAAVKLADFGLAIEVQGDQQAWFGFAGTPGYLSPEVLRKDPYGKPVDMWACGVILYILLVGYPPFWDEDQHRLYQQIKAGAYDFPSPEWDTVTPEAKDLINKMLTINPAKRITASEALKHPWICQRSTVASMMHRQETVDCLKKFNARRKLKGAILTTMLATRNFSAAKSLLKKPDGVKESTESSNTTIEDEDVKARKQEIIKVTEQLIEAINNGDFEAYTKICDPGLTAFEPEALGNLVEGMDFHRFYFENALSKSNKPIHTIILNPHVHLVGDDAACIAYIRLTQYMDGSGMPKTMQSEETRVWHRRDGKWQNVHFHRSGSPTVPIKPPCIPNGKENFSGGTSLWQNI

In the case of `CN(C[C@H](Cc1ccccc1)OP(=O)(O)O)C(=O)c1cncc(C#Cc2cnn(C(F)F)c2)c1` [Example 19, (S)-1-(5-((1-(difluoromethyl)-1H-pyrazol-4-yl)ethynyl)-N-methylnicotinamido)-3-phenylpropan-2-yl dihydrogen phosphate], the remaining activity at 0.1 µM [1] was 100%, the remaining activity at 0.1 µM [2] was 100% and the remaining activity at 0.1 µM [3] was 100%. The remaining activity at 0.1 µM [4] was 99%, the remaining activity at 0.1 µM [5] was 100% and the remaining activity at 0.1 µM [6] was 100%. It also gave a remaining activity at 0.1 µM [7] of 100%, a remaining activity at 0.1 µM [8] of 92% and a remaining activity at 0.1 µM [9] of 100%. The remaining activity at 0.1 µM [10] was 85%, the remaining activity at 0.1 µM [11] was 100% and the remaining activity at 0.1 µM [12] was 87%. It also gave a remaining activity at 0.1 µM [13] of 100%, a remaining activity at 0.1 µM [14] of 100% and a remaining activity at 0.1 µM [15] of 100%. The remaining activity at 0.1 µM [16] was 94%, the remaining activity at 0.1 µM [17] was 96% and the remaining activity at 0.1 µM [18] was 97%. For the same compound, the remaining activity at 0.1 µM [19] was 100%, the remaining activity at 0.1 µM [20] was 93% and the remaining activity at 0.1 µM [21] was 92%. It also gave a remaining activity at 0.1 µM [22] of 100%, a remaining activity at 0.1 µM [23] of 100% and a remaining activity at 0.1 µM [24] of 100%. It also gave a remaining activity at 0.1 µM [25] of 92%, a remaining activity at 0.1 µM [26] of 96% and a remaining activity at 0.1 µM [27] of 100%. It also gave a remaining activity at 0.1 µM [28] of 85% and a remaining activity at 0.1 µM [29] of 93%.
Work on `CN(C[C@@H](O)Cc1ccccc1)C(=O)c1cncc(C#Cc2cnn(C(F)F)c2)c1` [Example 2, (S)-5-((1-(difluoromethyl)-1H-pyrazol-4-yl)ethynyl)-N-(2-hydroxy-3-phenylpropyl)-N-methylnicotinamide] yielded a remaining activity at 0.1 µM ([1]; MAK) of 100%, a remaining activity at 0.1 µM ([2]; NEK4) of 100% and a remaining activity at 0.1 µM ([3]; CAMK2D) of 100%. The remaining activity at 0.1 µM ([4]; FGR) was 100%, the remaining activity at 0.1 µM ([5]; BIKE) was 100% and the remaining activity at 0.1 µM ([6]; NEK9) was 100%. It also gave a remaining activity at 0.1 µM ([7]; AMPK-alpha2) of 89%, a remaining activity at 0.1 µM ([8]; JNK2) of 91% and a remaining activity at 0.1 µM ([9]; CSNK1G3) of 99%. The remaining activity at 0.1 µM ([10]; PDGFRA) was 73%, the remaining activity at 0.1 µM ([11]; PRKD2) was 79% and the remaining activity at 0.1 µM ([12]; JNK1) was 92%. It also gave a remaining activity at 0.1 µM ([13]; SRPK2) of 93%, a remaining activity at 0.1 µM ([14]; PAK1) of 100% and a remaining activity at 0.1 µM ([15]; RAF1) of 100%. For the same compound, the remaining activity at 0.1 µM ([16]; EGFR(L858R)) was 100%, the remaining activity at 0.1 µM ([17]; AXL) was 100% and the remaining activity at 0.1 µM ([18]; VEGFR2) was 96%. For the same compound, the remaining activity at 0.1 µM ([19]; GAK) was 100%, the remaining activity at 0.1 µM ([20]; CSK) was 98% and the remaining activity at 0.1 µM ([21]; HPK1) was 78%. It also gave a remaining activity at 0.1 µM ([22]; FLT3(D835Y)) of 100%, a remaining activity at 0.1 µM ([23]; ALK(C1156Y)) of 100% and a remaining activity at 0.1 µM ([24]; EPHA2) of 100%. The remaining activity at 0.1 µM ([25]; PAK2) was 97%, the remaining activity at 0.1 µM ([26]; SIK2) was 89% and the remaining activity at 0.1 µM ([27]; CHEK2) was 100%. The remaining activity at 0.1 µM ([28]; TAOK3) was 92% and the remaining activity at 0.1 µM ([29]; LIMK2) was 95%.

— patent US11767310B2, “Nicotinamide RIPK1 inhibitors” (AbbVie Inc., priority 2021, dated 2023)
